Test results taken from patent US20230330178A1, “USE OF POLYPEPTIDE IN DRUG FOR PREVENTING AND TREATING PNEUMONIA” (priority 2020, published 2023).
Where two headings read alike, the source gives them in different places.

Assays:
Escherichia coli = experiment: animal or person; format: in vivo; conditions: for Number of escherichia coli: lung tissue of pneumonia model rats; for inhibition at 50 µg/mL / inhibition at 5000 µg/mL, 18 mg/kg: Escherichia coli, in Rattus norvegicus, inhaled or nasal, vs model control group
Experimental: (§1) Animals in the blank administration group were not modeled, and inhaled a high-concentration polypeptide aerosol (0.48 mg/L) through nose and mouth every day. Animals in the blank control group were instilled with a 0.5 mL 0.9% sodium chloride injection through trachea. After the remaining groups were slightly anesthetized with ether, the model control group, the erythromycin group, the budesonide group, the low-dose polypeptide treatment group, and the high-dose polypeptide treatment group were instilled with a 1×10^8 CFU/mL mixed bacteria solution of Staphylococcus aureus, Streptococcus pneumoniae, and Escherichia coli through trachea, 0.5 mL/rat, respectively, and the blank control group was instilled with a 0.9% sodium chloride injection of a same volume.
(§2) A specific modeling method was as follows: a rat was anesthetized by ether inhalation and lied on an anatomical plate at an angle of 30-45°, trachea of the rat was exposed under an otoscope, a long puncture needle was connected to a 1 mL syringe and inserted into the trachea, each rat was injected with 0.5 mL of mixed bacteria, the puncture needle was pulled out after the injection, the rat was still kept at the original tilt position for about 10 min, and the bacteria solution flowed into bronchus and alveoli due to gravity to cause infection, so as to induce a rat pneumonia model.
(§3) Each group was administrated for the first time at 2 h after modeling. After the experiment begun, 7.16 mg/mL and 71.6 mg/mL peptide solutions were atomized into aerosol particles with target concentrations of 0.07 and 0.48 mg/L every day, and the animals in the low-dose peptide treatment group and the high-dose peptide treatment group (0.54 mg/kg and 3.7 mg/kg, corresponding to drug concentrations 0.07 and 0.48 mg/L respectively) inhaled the aerosol particles with corresponding concentrations through mouth and nose respectively for 7 consecutive days, 10 min/time, 3 times a day; the blank administration group (cumulative dose 22.2 mg/kg, corresponding to a drug concentration 0.48 mg/L) inhaled 0.48 mg/L peptide aerosol particles through mouth and nose every day for 7 consecutive days, 20 min/time, 3 times a day; the blank control group and the model control group inhaled a 0.9% sodium chloride solution for the same time according to the same method; the erythromycin group and the budesonide group were administrated with a 5 mg/mL erythromycin solution and a 0.05 mg/mL budesonide suspension respectively for the same time according to the same method; and body weight of each group was tested every day.
(§4) Except the blank administration group, half animals of the remaining groups were randomly selected for lung function test, gross anatomy examination, and pathological test on D4 day, and lungs of 3 animals in each group were selected for bacteria culture and counting; and on D8 day, the remaining animals were subjected to lung function test, gross anatomy examination, and pathological test, and lungs of 3 animals in each group were selected for bacteria culture and counting (the blank control group and the blank administration group were not examined).
(§5) Experimental steps of bacteria culture: except the blank administration group, six animals were randomly selected from each of the remaining groups (three animals were randomly selected from the first and last anatomies), left middle lobe lung tissues were taken, washed with 0.9% sodium chloride injection, added with double weight of 0.9% sodium chloride injection, and ground into homogenate, the homogenate was inoculated into a meat extract agar medium and cultured at 37° C. for 16 to 18 h, bacteria were isolated, and each isolated bacteria suspension was diluted to 10^−1, 10^−2, 10^−3, 10^−4, 10^−5, 10^−6, 10^−7 and 10^−8 according to 10 times gradient, namely, 9 mL normal saline plus 1 mL bacteria suspension was 10^−1, and so on. […]

Streptococcus pneumoniae = experiment: animal or person; format: in vivo; conditions: for Number of streptococcus pneumoniae: lung tissue of pneumonia model rats; for inhibition at 50 µg/mL / inhibition at 5000 µg/mL, 18 mg/kg: Streptococcus pneumoniae, in Rattus norvegicus, inhaled or nasal, vs model control group
Experimental: as §1, §2, §3, §4, §5

Staphylococcus aureus = experiment: animal or person; format: in vivo; conditions: for Number of staphylococcus aureus: lung tissue of pneumonia model rats; for inhibition at 50 µg/mL / inhibition at 5000 µg/mL, 18 mg/kg: Staphylococcus aureus, in Rattus norvegicus, inhaled or nasal, vs model control group
Experimental: as §1, §2, §3, §4, §5

[1] = tested on: models of pneumonia in rats induced by mixed bacteria solution of Staphylococcus aureus, Streptococcus pneumoniae, and Escherichia coli; experiment: Arterial blood gas in rat pneumonia model induced by mixed bacteria; format: in vivo, SD rats; conditions: for PaCO2: partial pressure of carbon dioxide / PaO2: partial pressure of oxygen / arterial blood pH: pneumonia model rats
Text: (§6) Bacterial pneumonia is the most common pneumonia, is also one of the most common infectious diseases, and is caused by bacterial infection. Main pathogenic bacteria of the bacterial pneumonia include Streptococcus pneumoniae, Staphylococcus aureus, Escherichia coli, and the like, which pose a great threat to the health of children and the elderly. In this experiment, a mixed bacteria solution of Staphylococcus aureus, Streptococcus pneumoniae, and Escherichia coli was instilled into the trachea to induce models of pneumonia in rats. Pharmacodynamic effects of a peptide on pneumonia were evaluated by observing effects of the peptide inhaled through the nose and mouth on the models of pneumonia caused by mixed bacteria infection.
(§7) 80 SD rats, SPF grade, half male and half female, were selected and randomly divided into 8 groups according to sex and body weight, including 6 rats in each of a blank control group and a model evaluation group, 8 rats in a blank administration group, and 12 rats in each of a model control group, an erythromycin group, a budesonide group, a low-dose polypeptide treatment group, and a high-dose polypeptide treatment group.
as §1, §2
as §3, with “day. […]” for “day.”

[2] = tested on: models of pneumonia in rats induced by mixed bacteria solution of Staphylococcus aureus, Streptococcus pneumoniae, and Escherichia coli; experiment: Lung function test in rat pneumonia model induced by mixed bacteria; format: in vivo, SD rats
Text: as §6, §7, §1, §2, §3

[3] = tested on: models of pneumonia in rats induced by mixed bacteria solution of Staphylococcus aureus, Streptococcus pneumoniae, and Escherichia coli; experiment: Pathological test of lung tissue (HE) in rat pneumonia model; format: in vivo, SD rats; conditions: erythromycin 5 mg/mL solution (18 mg/kg) inhaled
Text: as §6, §7
Animals in the blank administration group were not modeled, and inhaled a high-concentration polypeptide aerosol (0.48 mg/L) through nose and mouth every day. […]

[4] = D4, budesonide 0.05 mg/mL suspension (0.18 mg/kg) inhaled
[5] = D8, budesonide 0.05 mg/mL suspension (0.18 mg/kg) inhaled
[6] = D4, erythromycin 5 mg/mL solution (18 mg/kg) inhaled
[7] = D8, erythromycin 5 mg/mL solution (18 mg/kg) inhaled

CCCC1O[C@@H]2C[C@H]3[C@@H]4CCC5=CC(=O)C=C[C@]5(C)[C@H]4[C@@H](O)C[C@]3(C)[C@]2(C(=O)CO)O1 (some centres unmarked) [Budesonide, budesonide]
Number of escherichia coli (Escherichia coli; [4]): 3737 ± 1115 CFU/mL
Number of escherichia coli (Escherichia coli; [5]): 890 ± 409 CFU/mL
inhibition at 50 µg/mL (Escherichia coli; read-out: Inhibition rate of escherichia coli, D4, budesonide 0.05 mg/mL suspension (0.18 mg/kg) inhaled): -20.6%
inhibition at 50 µg/mL (Escherichia coli; read-out: Inhibition rate of escherichia coli, D8, budesonide 0.05 mg/mL suspension (0.18 mg/kg) inhaled): 7.58%
Number of streptococcus pneumoniae (Streptococcus pneumoniae; [4]): 1810 ± 957 CFU/mL
Number of streptococcus pneumoniae (Streptococcus pneumoniae; [5]): 433 ± 276 CFU/mL
inhibition at 50 µg/mL (Streptococcus pneumoniae; read-out: Inhibition rate of streptococcus pneumoniae, D4, budesonide 0.05 mg/mL suspension (0.18 mg/kg) inhaled): 61.7%
inhibition at 50 µg/mL (Streptococcus pneumoniae; read-out: Inhibition rate of streptococcus pneumoniae, D8, budesonide 0.05 mg/mL suspension (0.18 mg/kg) inhaled): 72.7%
Number of staphylococcus aureus (Staphylococcus aureus; [4]): 2577 ± 655 CFU/mL
Number of staphylococcus aureus (Staphylococcus aureus; [5]): 560 ± 269 CFU/mL
inhibition at 50 µg/mL (Staphylococcus aureus; read-out: Inhibition rate of staphylococcus aureus, D4, budesonide 0.05 mg/mL suspension (0.18 mg/kg) inhaled): 48.7%
inhibition at 50 µg/mL (Staphylococcus aureus; read-out: Inhibition rate of staphylococcus aureus, D8, budesonide 0.05 mg/mL suspension (0.18 mg/kg) inhaled): 83.4%
PaCO2: partial pressure of carbon dioxide [1, 4]: 52.87 ± 13.34 mmHg
PaO2: partial pressure of oxygen [1, 4]: 75.73 ± 30.92 mmHg
arterial blood pH [1, 4]: 7.31 ± 0.07
PaCO2: partial pressure of carbon dioxide [1, 5]: 34.35 ± 8.17 mmHg
PaO2: partial pressure of oxygen [1, 5]: 86.67 ± 24.78 mmHg
arterial blood pH [1, 5]: 7.45 ± 0.06
FEV200 (forced expiratory volume) [2, 4]: 2.72 ± 0.72 mL
FEV200/FVC [2, 4]: 85.78 ± 8.00%
FVC: forced vital capacity [2, 4]: 3.13 ± 0.59 mL
VT: tidal volume [2, 4]: 1.86 ± 0.69 mL
f: respiratory rate [2, 4]: 130 ± 39 time/min
FEV200 (forced expiratory volume) [2, 5]: 3.43 ± 0.69 mL
FEV200/FVC [2, 5]: 89.77 ± 4.58%
FVC: forced vital capacity [2, 5]: 3.80 ± 0.65 mL
VT: tidal volume [2, 5]: 1.63 ± 0.27 mL
f: respiratory rate [2, 5]: 126 ± 11 time/min

CC[C@H]1OC(=O)[C@H](C)[C@@H](O[C@H]2C[C@@](C)(OC)[C@@H](O)[C@H](C)O2)[C@H](C)[C@@H](O[C@@H]2O[C@H](C)C[C@H](N(C)C)[C@H]2O)[C@](C)(O)C[C@@H](C)C(=O)[C@H](C)[C@@H](O)[C@]1(C)O [Erythromycin, erythromycin]
Number of escherichia coli (Escherichia coli; [6]): 447 ± 146 CFU/mL
Number of escherichia coli (Escherichia coli; [7]): 80 ± 2 CFU/mL
inhibition at 5000 µg/mL, 18 mg/kg (Escherichia coli; read-out: Inhibition rate of escherichia coli, D4, erythromycin 5 mg/mL solution (18 mg/kg) inhaled): 85.6%
inhibition at 5000 µg/mL, 18 mg/kg (Escherichia coli; read-out: Inhibition rate of escherichia coli, D8, erythromycin 5 mg/mL solution (18 mg/kg) inhaled): 91.7%
Number of streptococcus pneumoniae (Streptococcus pneumoniae; [6]): 1223 ± 287 CFU/mL
Number of streptococcus pneumoniae (Streptococcus pneumoniae; [7]): 67 ± 15 CFU/mL
inhibition at 5000 µg/mL, 18 mg/kg (Streptococcus pneumoniae; read-out: Inhibition rate of streptococcus pneumoniae, D4, erythromycin 5 mg/mL solution (18 mg/kg) inhaled): 74.1%
inhibition at 5000 µg/mL, 18 mg/kg (Streptococcus pneumoniae; read-out: Inhibition rate of streptococcus pneumoniae, D8, erythromycin 5 mg/mL solution (18 mg/kg) inhaled): 95.8%
Number of staphylococcus aureus (Staphylococcus aureus; [6]): 633 ± 146 CFU/mL
Number of staphylococcus aureus (Staphylococcus aureus; [7]): 113 ± 31 CFU/mL
inhibition at 5000 µg/mL, 18 mg/kg (Staphylococcus aureus; read-out: Inhibition rate of staphylococcus aureus, D4, erythromycin 5 mg/mL solution (18 mg/kg) inhaled): 87.4%
inhibition at 5000 µg/mL, 18 mg/kg (Staphylococcus aureus; read-out: Inhibition rate of staphylococcus aureus, D8, erythromycin 5 mg/mL solution (18 mg/kg) inhaled): 96.7%
PaCO2: partial pressure of carbon dioxide [1, 6]: 50.38 ± 6.60 mmHg
PaO2: partial pressure of oxygen [1, 6]: 69.68 ± 15.16 mmHg
arterial blood pH [1, 6]: 7.33 ± 0.05
PaO2 increase vs model control group ([1]; D8, erythromycin group (18 mg/kg), no statistical difference): 37.17%
PaCO2: partial pressure of carbon dioxide [1, 7]: 39.37 ± 5.60 mmHg
PaO2: partial pressure of oxygen [1, 7]: 71.08 ± 14.74 mmHg
arterial blood pH [1, 7]: 7.42 ± 0.04
pathological changes of lungs compared with the model control group ([3]; D4): significantly alleviated
lung tissue lesions ([3]; D8): tended to normal
FEV200 (forced expiratory volume) [2, 6]: 2.84 ± 0.54 mL
FEV200/FVC [2, 6]: 90.65 ± 4.78 %
FVC: forced vital capacity [2, 6]: 3.12 ± 0.52 mL
VT: tidal volume [2, 6]: 1.59 ± 0.39 mL
f: respiratory rate [2, 6]: 132 ± 27 time/min
FEV200 (forced expiratory volume) [2, 7]: 3.40 ± 0.12 mL
FEV200/FVC [2, 7]: 92.36 ± 2.94 %
FVC: forced vital capacity [2, 7]: 3.68 ± 0.20 mL
VT: tidal volume [2, 7]: 1.67 ± 0.24 mL
f: respiratory rate [2, 7]: 130 ± 25 time/min
